Tests used:
[1] = Solubilization of the compounds in solvents/solubilizers and clarity in lemon-lime beverage; type: physicochemical; details: for Time final beverage remained a clear solution: sucrose co-melt (caramel-melts), Q-NATURALE® 200
Description: To identify a sufficient delivery mechanism for the sweet enhacing compounds of the present invention, several method of solublization were tested for use in clear beverages. The overall goal was to solubilize the compounds of the invention and have them be deliverable in a clear, carbonated beverage, which can be sweetened with various forms of nutritive and non-nutritive sweeteners without negative flavor impact, i.e. no loss in efficacy (the sweetness perception increase) and no off-flavor formation. In particular, the goal was to identify a delivery mechanism that would allow the compounds to be delivered to the beverage at an “as consumed” level between 10 ppm and 50 ppm. […] The carrier ingredients should not impart any negative physical attributes or negative flavor attributes to the product. An ideal delivery system would not require the labeling of any carrier ingredients and would work with a beverage concentrate model system, preferably a 1+5 concentrate throw.
Initial trials were conducted to dissolve the compound in various flavor type solvents, including ethanol, 200 proof; triacetin; propylene glycol; lemon-lime flavor extract; lemon oil (washed); citrus oil; polysorbate 80; polysorbate 60; polysorbate 20; benzyl alcohol; and NEOBEE® M-5 oil.
In polysorbate formulations, Compound 3 and the polysorbates were accurately weighed into screw-capped glass vials according to Table 8 and heated at 70-90° C. and vortex mixed to facilitate the solubilization. The resulting mixtures were blended into 41.5 brix lemon-lime flavored beverage syrup under stirring and stored overnight at room temperature. The syrup was diluted with 5× water to achieve the final 7.7 brix lemon-lime beverage.
(§1) For example, Compound 3 and polysorbate 80 were accurately weighed into screw-capped glass vials according to Table 9 and heated at 70-90° C. and vortex mixed to facilitate the solubilization. Q-[…]® was added to the 41.5 brix lemon-lime flavored beverage syrup. The polysorbate 80 mixtures were blended into 41.5 brix lemon-lime flavored beverage syrup with Q-[…]® 200 and vortex mixed at 3000 rpm for 75 seconds. The resulting syrups were stored overnight at room temperature. The syrup was then diluted with 5× water to achieve the final 7.7 brix lemon-lime beverage. […] Solution PQ2 was able to maintain clear solution for 1 month.
(§2) Because Q-[…]® was able to maintain the stability of the sweet enhancing compounds, it was evaluated in combination with additional solvents. […] In another example, Compound 3, Q-[…]®, and either 1,2-propylene glycol or ethanol 200 proof were accurately weighed into screw-capped glass vials according to Table 10 and heated and vortex mixed to facilitate the solubilization. The resulting solution mixtures were blended into 41.5 brix lemon-lime flavored beverage syrup and vortexed at 3000 rpm for 75 seconds. The resulting syrups were stored overnight at refrigerated temperature and diluted with 5× water to achieve the final 7.7 brix lemon-lime beverage. All solutions (i.e., PGEQ1-PGEQ4) were able to maintain clear solution for 33 days at room temperature and 14 days at refrigerated temperature.
In another example, 40 mg Compound 3 and 1 g rubusoside were weighed into 20 ml glass vials. 20 ml water was added to the vial, which was vortex mixed slightly to form a suspension solution. The suspension was homogenized at 8000 rpm using a Silverson L5M-A to from an emulsion. The emulsion was heated at 121° C. for 1 h. The sample after heating was suspended at room temperature for 24 h to equilibrate and was filtered afterward. The weight ratio between rubusoside and Compound 3 was determined to be 147:1. Therefore, […] rubusoside was needed to solubilize 25 ppm Compound 3.
The ability of sugar to co-melt with compounds of the invention was also evaluated. 30 mg Compound 3 and 150 mg sucrose were dissolved in a solvent mixture of 9 ml ethanol and 1 ml water. […]

[2] = system: sweetness enhancement effect and off-taste in lemon-lime beverage; assay: Sensory assessment / informal tasting of solubilized Compound 3 beverages; type: in vivo; details: sucrose co-melt
Description: as §1
as §2, with “All solutions (i.e., PGEQ1-PGEQ4) were able to maintain clear solution for 33 days at room temperature and 14 days at refrigerated temperature.” left out
The ability of sugar to co-melt with compounds of the invention was also evaluated. […]

[3] = Beverage emulsion delivery systems, physical stability; type: physicochemical; details: NEOBEE® M-5 oil phase with Q-NATURALE®, no weighting agent
Description: Utilizing the triacetin and NEOBEE® M-5 oil solutions described in Example 6, emulsion systems were prepared to develop a clear delivery system. A suitable emulsion system would need to have a particle size of under 100 nanometers. A series of trials were conducted in which the triacetin and NEOBEE® M-5 oil solutions were combined with a variety of matrices including preserved water (i.e., water comprising 500 ppm sodium benzoate, 400 ppm potassium sorbate and 1000 ppm citric acid), Q-[…]®, lecithin, lyso-lecithin, and citrus oil. Pre-homogenization utilizing a Silverson High Shear mixer and final homogenization utilizing a high pressure homogenizer at 20,000 psi (up to 10 passes) only achieved a particle size reduction to 146 nanometers. The emulsions were stable in beverage but were opaque. […] Therefore incorporating the compounds into a cloudy beverage emulsion or homogenizing it into a cloudy citrus (orange juice) product may be beneficial. Without being bound by theory, the opacity of the beverage would, in effect, shield the compound from the detriment of light.
For a standard beverage emulsion, the compounds need to be dissolved in the oil phase of the emulsion. Unfortunately, the compounds were mostly insoluble in citrus oil (orange oil 5×). […]

[4] = heated at 70-90° C., vortex mixed

## COc1ccc(C2CC(=O)c3c(O)cccc3O2)cc1O (single isomer, unassigned) [Compound 3, 5-hydroxy-2-(3-hydroxy-4-methoxyphenyl)chroman-4-one]
[1]; encapsulated with alpha-, beta-, gamma-cyclodextrin (molar 1:1, 1:2, 1:4), 25 ppm in 7.7 brix lemon-lime beverage
  Precipitation of final beverages: had precipitates
[1]; [4]
  Dissolution in polysorbate 20: did not dissolve
  Dissolution in polysorbate 60: did not dissolve
[1]; polysorbate 80 solutions PS1-PS6, 7.7 brix lemon-lime beverage
  Precipitation in final beverages: precipitated overnight
[1]; 7.7 brix lemon-lime beverage, refrigerated temperature
  Time final beverage remained a clear solution: 14 days
[1]; 7.7 brix lemon-lime beverage, room temperature
  Time final beverage remained a clear solution: 30 days
[2]; 7.7 brix lemon-lime beverage
  Sweetness enhancement effect in final beverage (sensory assessment): maintained its sweetness enhancement effect
[2]; lemon-lime beverage
  Off-taste (informal tasting assay): perceptible off-taste
[3]
  Physical stability of emulsion: physically stable
